Measurements reported in patent publication US11547652B2, “Combination products and cosmetic compositions for controlling skin disorders and skin aging that affect keratinocytes and/or fibroblasts and the dermis” (NUTRICOS Technologies, priority 2014, dated 2023).

Assays:
[1] = tested on: NHDF cells (Normal Human Dermal Fibroblasts); assay: Hyaluronic acid production by NHDF cells (ELISA on supernatant); assay type: cell-based; details: 72 hours, glucosamine 0.1 to 100 μg/ml, hyaluronic acid 40 to 6000 ng/ml, source of collagen and hyaluronic acid 4 to 4000 ng/ml, FIG. 2
Description: Normal human dermal fibroblasts (NHDF) were cultured at 37° C. under 5% CO2 in a DMEM culture medium supplemented with glutamine (2 mM); calf serum (1%), penicillin (50 U/ml) and streptomycin ([…]). Glucosamine (0.1 to 100 μg/ml) and/or hyaluronic acid (from 40 to 6000 ng/ml) and/or a source of collagen and hyaluronic acid (in a ratio of between 0.07% and 15%) at concentrations ranging from 4 to 4000 ng/ml were then added to the cultivation medium alone or in combination. After 72 hours of cultivation under these conditions, the supernatant was collected to quantify the hyaluronic acid produced by the cells using an ELISA Duoset Hyaluronan kit marketed by the company R & D System (DY3614 reference).

[2] = tested on: NHEK cells (Normal Human Epidermal Keratinocytes); assay: Hyaluronic acid production by NHEK cells (ELISA on supernatant); assay type: cell-based; details: 72 hours of cultivation, hyaluronic acid 40 to 6000 ng/ml, glucosamine sulfate 0.25 to 25 μg/ml, FIG. 1
Description: Normal human epidermal keratinocytes were cultured at 37° C. under 5% CO2 in a medium keratinocyte-SFM culture, supplemented with epidermal growth factor (EGF; 0.25 ng/ml), a pituitary extract (25 μg/ml) and an antibiotic (gentamicin 25 μg/ml) in 96-well plates for 24 h without stimulation. Glucosamine and/or hyaluronic acid are then added to the cultivation medium alone or in combination at concentrations of 40 to 6000 ng/ml hyaluronic acid and 0.25 to 25 μg/ml to glucosamine sulfate. After 72 hours of cultivation under these conditions, the supernatant was collected to quantify the hyaluronic acid produced by the cells using an ELISA Duoset Hyaluronan kit marketed by the company R & D System (DY3614 reference).

For `N[C@H]1C(O)O[C@H](CO)[C@@H](O)[C@@H]1O.O=S(=O)(O)O` (stereo partly shown) [glucosamine sulfate], the “hyaluronic acid production by human fibroblasts in vitro” value [1] was “lack of stimulation” and the “hyaluronic acid production by human keratinocytes in vitro” value [2] was “induction of hyaluronic acid production”.

With hyaluronic acid the “hyaluronic acid production by human fibroblasts in vitro” value [1] was “did not stimulate the synthesis of hyaluronic acid” and the “hyaluronic acid production by human keratinocytes in vitro” value [2] was “does not stimulate the synthesis of hyaluronic acid”.
